“And” between values parts separate entries of the source, which are not always exact repeats. Equal entries are not always repeated. Inconclusive results and toxic doses are left out. No stated cut-off is given here; in the data, active means T/C of 150% or more; inactive means T/C below 125%.
Tested on: L1210 leukemia ip in BDF1 mice, survival T/C
Experiment: NCI In Vivo Anticancer Drug Screen. Data for tumor model L1210 Leukemia (intraperitoneal) in B6D2F1 (BDF1) mice
Conditions: endpoint: mean survival time, higher = longer survival
Method in brief: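 In this screen, tumor-bearing mice given compound are compared to those given vehicle, and their survival values are reported as a treated-to-control quotient.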

[1] = dose: 100.0 mg/kg/injection, schedule: Q04DX002 (ip), vehicle: saline
[2] = dose: 200.0 mg/kg/injection, schedule: Q04DX002 (ip), vehicle: saline
[3] = dose: 100.0 mg/kg/injection, schedule: Q04DX003 (ip), vehicle: saline
[4] = dose: 200.0 mg/kg/injection, schedule: Q04DX003 (ip), vehicle: saline
[5] = dose: 100.0 mg/kg/injection, schedule: Q01DX009 (ip), vehicle: saline
[6] = dose: 200.0 mg/kg/injection, schedule: Q01DX009 (ip), vehicle: saline
[7] = dose: 100.0 mg/kg/injection, schedule: Q04DX003 (ip), vehicle: saline with Tween-80
[8] = dose: 200.0 mg/kg/injection, schedule: Q04DX003 (ip), vehicle: saline with Tween-80
[9] = dose: 400.0 mg/kg/injection, schedule: Q04DX003 (ip), vehicle: saline with Tween-80

Measured: T/C

O=C(Nc1ccccc1)c1ccc2c(c1)C(=O)N(c1ccccc1)C2=O
inactive: [1] 90 % of control | [2] 87 % of control

COC1OC(CCl)C(Cl)CC1OC(C)=O (configuration not stated)
inactive: [3] 95 % of control | [4] 90 % of control | dose: 400.0 mg/kg/injection, schedule: Q04DX003 (ip), vehicle: saline 98 % of control

N#CCCN(CCC#N)c1ccccc1
inactive: [5] 94 % of control | [6] 102 % of control | dose: 400.0 mg/kg/injection, schedule: Q01DX009 (ip), vehicle: saline 107 % of control

CCN(CC)CC(=O)NCC(CC)(CCN(C)C)c1cccc2ccccc12 (configuration not stated)
inactive: [5] 105 % of control | [3] 102 % of control | [6] 97 % of control | [4] 100 % of control

O=C1C(O)=C(c2ccc(O)cc2)C(=O)C(O)=C1c1ccc(O)cc1
inactive: dose: 25.0 mg/kg/injection, schedule: Q04DX002 (ip), vehicle: Klucel (hydroxypropylcellulose) (HPC) 88 % of control | dose: 25.0 mg/kg/injection, schedule: Q04DX002 (oral), vehicle: saline with Tween-80 105 % of control | dose: 50.0 mg/kg/injection, schedule: Q04DX002 (ip), vehicle: Klucel (hydroxypropylcellulose) (HPC) 95 % of control | dose: 50.0 mg/kg/injection, schedule: Q04DX002 (oral), vehicle: saline with Tween-80 98 % of control | dose: 100.0 mg/kg/injection, schedule: Q04DX002 (ip), vehicle: Klucel (hydroxypropylcellulose) (HPC) 103 % of control | dose: 100.0 mg/kg/injection, schedule: Q04DX002 (oral), vehicle: saline with Tween-80 112 % of control

O=C(c1ccccc1)C(C(c1ccccc1)N1CCOCC1)N1CCOCC1 (configuration not stated)
inactive: dose: 50.0 mg/kg/injection, schedule: Q01DX001 (ip), vehicle: saline 113 % of control | dose: 100.0 mg/kg/injection, schedule: Q01DX001 (ip), vehicle: saline 102 % of control | dose: 200.0 mg/kg/injection, schedule: Q01DX001 (ip), vehicle: saline 108 % of control | dose: 400.0 mg/kg/injection, schedule: Q01DX001 (ip), vehicle: saline 102 % of control

O=Cc1[nH]c(=O)[nH]c(=O)c1Cc1ccc(Cl)cc1
inactive: [7] 98 % of control | [8] 102 % of control

NC(=O)C(Cl)Cl
inactive: [7] 113 % of control | [8] 103 % of control | [9] 94 % of control

Nc1c(Br)cc2c(c1Br)Cc1cc(Br)ccc1-2
inactive: dose: 200.0 mg/kg/injection, schedule: Q01DX Z (ip), vehicle: saline 109 % of control | dose: 400.0 mg/kg/injection, schedule: Q01DX Z (ip), vehicle: saline 107 % of control | dose: 800.0 mg/kg/injection, schedule: Q01DX Z (ip), vehicle: saline 112 % of control | dose: 1600.0 mg/kg/injection, schedule: Q01DX Z (ip), vehicle: saline 112 % of control

C1=CC2C=CC1C2
inactive: dose: 100.0 mg/kg/injection, schedule: Q01DX009 (ip), vehicle: saline with Tween-80 97 % of control | [7] 89 % of control | dose: 200.0 mg/kg/injection, schedule: Q01DX009 (ip), vehicle: saline with Tween-80 92 % of control | [8] 92 % of control | dose: 400.0 mg/kg/injection, schedule: Q01DX009 (ip), vehicle: saline with Tween-80 89 % of control | [9] 89 % of control

NC(CCl)=NCCCCN=C(N)CCl
inactive: dose: 12.5 mg/kg/injection, schedule: Q01DX009 (ip), vehicle: saline 108 % of control | dose: 12.5 mg/kg/injection, schedule: Q04DX002 (ip), vehicle: saline 100 % of control | dose: 25.0 mg/kg/injection, schedule: Q01DX009 (ip), vehicle: saline 101 % of control | dose: 25.0 mg/kg/injection, schedule: Q04DX002 (ip), vehicle: saline 124 % of control

CCCCCCCC(=O)N1C(C)CCC1C (configuration not stated)
inactive: [1] 94 % of control | [2] 94 % of control | dose: 400.0 mg/kg/injection, schedule: Q04DX002 (ip), vehicle: saline 98 % of control

CCC[CH2][Pb]([CH2]CCC)([CH2]CCC)[N](C#N)C#N
inactive: dose: 25.0 mg/kg/injection, schedule: Q04DX002 (sc), vehicle: olive oil, sesame oil, peanut oil 101 % of control | dose: 50.0 mg/kg/injection, schedule: Q04DX002 (sc), vehicle: olive oil, sesame oil, peanut oil 101 % of control | dose: 100.0 mg/kg/injection, schedule: Q04DX002 (sc), vehicle: olive oil, sesame oil, peanut oil 96 % of control and 97 % of control

Source: PubChem BioAssay AID248 (DTP/NCI, 2004)
